Assay results: ChEMBL document CHEMBL4387741, “Optimization of novel reversible Bruton's tyrosine kinase inhibitors identified using Tethering-fragment-based screens” (Bioorg Med Chem, 2019)

Key:
[1] = tested on: Mast/stem cell growth factor receptor Kit (Homo sapiens), P10721 [D816H]; assay: Inhibition of human partial length KIT D816H mutant (I571 to D952 residues) expressed in mammalian expression system at 1 uM by Kinomescan method relative to control
[2] = tested on: Receptor-type tyrosine-protein kinase FLT3 (Homo sapiens), P36888 [D835H]; assay: Inhibition of human partial length FLT3 D835H mutant (V592 to Y969 residues) expressed in bacterial expression system at 1 uM by Kinomescan method relative to control
[3] = biological target: BMP-2-inducible protein kinase (Homo sapiens) (UniProt Q9NSY1); assay: Inhibition of wild-type human partial length BIKE (S34 to N329 residues) expressed in bacterial expression system at 1 uM by Kinomescan method relative to control
[4] = biological target: Phosphatidylinositol 3-kinase catalytic subunit type 3 (Homo sapiens) (UniProt Q8NEB9); assay: Inhibition of wild-type human partial length VPS34 (S282 to H879 residues) expressed in mammalian expression system at 1 uM by Kinomescan method relative to control
[5] = biological target: Casein kinase I isoform gamma-1 (Homo sapiens) (UniProt Q9HCP0); assay: Inhibition of wild-type human partial length CSNK1G1 (T15 to S353 residues) expressed in bacterial expression system at 10 uM by Kinomescan method relative to control
[6] = biological target: Hormonally up-regulated neu tumor-associated kinase (Homo sapiens) (UniProt P57058); assay: Inhibition of wild-type human partial length HUNK (A31 to K354 residues) expressed in bacterial expression system at 10 uM by Kinomescan method relative to control
[7] = biological target: Cyclin-dependent kinase-like 1 (Homo sapiens) (UniProt Q00532); assay: Inhibition of wild-type human full length CDKL1 (M1 to I358 residues) expressed in mammalian expression system at 10 uM by Kinomescan method relative to control
[8] = biological target: Serine/threonine-protein kinase Nek11 (Homo sapiens) (UniProt Q8NG66); assay: Inhibition of wild-type human partial length NEK11 (M1 to E313 residues) expressed in mammalian expression system at 10 uM by Kinomescan method relative to control
[9] = biological target: G protein-coupled receptor kinase 3 (Homo sapiens) (UniProt P35626); assay: Inhibition of wild-type human full length GRK3 (M1 to L688 residues) expressed in mammalian expression system at 10 uM by Kinomescan method relative to control
[10] = tested on: Epidermal growth factor receptor (Homo sapiens), P00533 [UNDEFINED MUTATION]; assay: Inhibition of human partial length EGFR S752-I759del mutant expressed in bacterial expression system at 10 uM by Kinomescan method relative to control
[11] = tested on: Tyrosine-protein kinase ABL1 (Homo sapiens), P00519 [Y253F]; assay: Inhibition of human phosphorylated ABL1 Y253F mutant (S229 to K512 residues) expressed in mammalian expression system at 10 uM by Kinomescan method relative to control
[12] = biological target: Calcium/calmodulin-dependent protein kinase type II subunit gamma (Homo sapiens) (UniProt Q13555); assay: Inhibition of wild-type human partial length CAMK2G (R9 to A303 residues) expressed in bacterial expression system at 10 uM by Kinomescan method relative to control
[13] = biological target: RAC-alpha serine/threonine-protein kinase (Homo sapiens) (UniProt P31749); assay: Inhibition of wild-type human partial length AKT1 expressed in bacterial expression system at 10 uM by Kinomescan method relative to control
[14] = biological target: Cyclin-dependent kinase 15 (Homo sapiens) (UniProt Q96Q40); assay: Inhibition of wild-type human full length PFTAIRE2 (M1 to W384 residues) expressed in bacterial expression system at 10 uM by Kinomescan method relative to control
[15] = biological target: Ribosomal protein S6 kinase alpha-3 (Homo sapiens) (UniProt P51812); assay: Inhibition of wild-type human partial length C-terminal RSK2 kinase domain 2 (V402 to S715 residues) expressed in mammalian expression system at 10 uM by Kinomescan method relative to control
[16] = tested on: Mast/stem cell growth factor receptor Kit (Homo sapiens), P10721 [L576P]; assay: Inhibition of human partial length KIT L576P mutant (Y545 to D952 residues) expressed in bacterial expression system at 10 uM by Kinomescan method relative to control
Sequence of Mast/stem cell growth factor receptor Kit (Homo sapiens), P10721 [L576P] (P10721 whole entry L576P, the tested form may be a part): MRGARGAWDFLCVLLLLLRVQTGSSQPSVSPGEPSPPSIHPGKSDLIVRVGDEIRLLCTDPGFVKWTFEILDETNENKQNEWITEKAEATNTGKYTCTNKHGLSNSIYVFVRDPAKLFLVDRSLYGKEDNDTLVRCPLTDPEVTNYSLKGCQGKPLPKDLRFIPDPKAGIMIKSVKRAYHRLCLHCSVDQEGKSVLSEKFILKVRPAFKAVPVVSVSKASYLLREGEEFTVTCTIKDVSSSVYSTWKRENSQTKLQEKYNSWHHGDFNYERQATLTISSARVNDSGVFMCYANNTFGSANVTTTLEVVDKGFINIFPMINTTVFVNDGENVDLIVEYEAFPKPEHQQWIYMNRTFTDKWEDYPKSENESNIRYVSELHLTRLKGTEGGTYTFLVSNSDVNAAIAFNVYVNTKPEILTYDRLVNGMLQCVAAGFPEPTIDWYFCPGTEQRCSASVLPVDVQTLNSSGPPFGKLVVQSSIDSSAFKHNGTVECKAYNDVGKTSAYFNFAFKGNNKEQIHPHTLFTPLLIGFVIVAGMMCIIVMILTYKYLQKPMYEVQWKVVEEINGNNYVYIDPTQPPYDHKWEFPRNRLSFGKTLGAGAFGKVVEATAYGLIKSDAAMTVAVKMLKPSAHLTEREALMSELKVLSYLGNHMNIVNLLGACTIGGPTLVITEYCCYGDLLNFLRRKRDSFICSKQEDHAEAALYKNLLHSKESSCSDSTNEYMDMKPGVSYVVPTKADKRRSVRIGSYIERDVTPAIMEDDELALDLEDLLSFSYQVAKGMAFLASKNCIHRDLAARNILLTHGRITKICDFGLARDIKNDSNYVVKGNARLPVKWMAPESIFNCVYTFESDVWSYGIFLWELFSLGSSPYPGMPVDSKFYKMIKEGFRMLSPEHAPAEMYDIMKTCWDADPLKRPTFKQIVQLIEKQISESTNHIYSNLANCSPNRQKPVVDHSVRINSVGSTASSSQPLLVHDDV

Sequence of Hormonally up-regulated neu tumor-associated kinase (Homo sapiens) (P57058 whole entry, the tested form may be a part): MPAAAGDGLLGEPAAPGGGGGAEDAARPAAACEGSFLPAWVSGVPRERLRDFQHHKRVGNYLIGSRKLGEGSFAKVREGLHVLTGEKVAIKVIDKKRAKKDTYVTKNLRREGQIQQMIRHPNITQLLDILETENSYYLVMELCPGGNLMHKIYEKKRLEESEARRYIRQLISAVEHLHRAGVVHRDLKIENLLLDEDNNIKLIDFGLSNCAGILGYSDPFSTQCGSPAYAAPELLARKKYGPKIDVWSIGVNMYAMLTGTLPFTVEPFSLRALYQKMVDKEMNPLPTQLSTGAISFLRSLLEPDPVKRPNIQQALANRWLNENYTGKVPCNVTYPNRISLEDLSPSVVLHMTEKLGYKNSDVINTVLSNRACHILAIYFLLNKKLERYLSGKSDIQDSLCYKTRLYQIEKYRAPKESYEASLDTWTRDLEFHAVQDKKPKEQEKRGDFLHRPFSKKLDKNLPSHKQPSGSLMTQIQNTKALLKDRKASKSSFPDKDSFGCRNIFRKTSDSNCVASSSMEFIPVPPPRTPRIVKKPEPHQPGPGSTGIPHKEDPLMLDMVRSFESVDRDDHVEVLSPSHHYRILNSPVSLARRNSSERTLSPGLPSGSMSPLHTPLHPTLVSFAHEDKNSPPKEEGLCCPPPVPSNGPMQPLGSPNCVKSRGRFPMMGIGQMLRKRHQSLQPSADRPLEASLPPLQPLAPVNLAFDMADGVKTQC
Sequence of G protein-coupled receptor kinase 3 (Homo sapiens) (P35626 whole entry, the tested form may be a part): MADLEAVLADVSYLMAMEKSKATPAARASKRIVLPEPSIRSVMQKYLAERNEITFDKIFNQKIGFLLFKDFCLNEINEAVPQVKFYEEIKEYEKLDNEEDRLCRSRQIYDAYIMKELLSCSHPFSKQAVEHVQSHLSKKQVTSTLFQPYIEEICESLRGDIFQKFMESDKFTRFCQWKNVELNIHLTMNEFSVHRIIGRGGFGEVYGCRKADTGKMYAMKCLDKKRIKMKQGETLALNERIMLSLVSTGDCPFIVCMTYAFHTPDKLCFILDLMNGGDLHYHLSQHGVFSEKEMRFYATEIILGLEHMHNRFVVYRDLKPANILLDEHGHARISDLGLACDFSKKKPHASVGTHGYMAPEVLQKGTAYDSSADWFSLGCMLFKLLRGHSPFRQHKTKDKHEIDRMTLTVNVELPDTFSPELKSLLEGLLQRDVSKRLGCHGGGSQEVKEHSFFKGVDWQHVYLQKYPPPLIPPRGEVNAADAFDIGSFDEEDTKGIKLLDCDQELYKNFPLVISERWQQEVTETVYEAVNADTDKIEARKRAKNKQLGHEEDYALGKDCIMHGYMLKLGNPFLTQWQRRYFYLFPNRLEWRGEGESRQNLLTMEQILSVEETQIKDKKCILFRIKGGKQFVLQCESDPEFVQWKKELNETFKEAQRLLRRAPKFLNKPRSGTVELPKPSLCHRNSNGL
Sequence of RAC-alpha serine/threonine-protein kinase (Homo sapiens) (P31749 whole entry, the tested form may be a part): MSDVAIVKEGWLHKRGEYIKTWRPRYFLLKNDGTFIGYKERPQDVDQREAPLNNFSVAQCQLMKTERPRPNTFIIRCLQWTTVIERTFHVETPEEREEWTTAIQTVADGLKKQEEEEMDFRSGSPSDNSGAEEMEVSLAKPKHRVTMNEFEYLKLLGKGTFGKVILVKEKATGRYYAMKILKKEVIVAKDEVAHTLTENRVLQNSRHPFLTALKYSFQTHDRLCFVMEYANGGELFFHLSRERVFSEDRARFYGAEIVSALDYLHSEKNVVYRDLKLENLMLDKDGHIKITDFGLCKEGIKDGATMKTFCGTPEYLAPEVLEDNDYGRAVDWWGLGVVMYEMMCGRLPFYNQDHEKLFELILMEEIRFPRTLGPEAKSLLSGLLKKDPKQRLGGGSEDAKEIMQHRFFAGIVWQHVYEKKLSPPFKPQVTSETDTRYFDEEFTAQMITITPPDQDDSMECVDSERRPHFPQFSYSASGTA
Sequence of Epidermal growth factor receptor (Homo sapiens), P00533 [UNDEFINED MUTATION] (P00533 whole entry, looked up, stated change not applied, the tested form may be a part): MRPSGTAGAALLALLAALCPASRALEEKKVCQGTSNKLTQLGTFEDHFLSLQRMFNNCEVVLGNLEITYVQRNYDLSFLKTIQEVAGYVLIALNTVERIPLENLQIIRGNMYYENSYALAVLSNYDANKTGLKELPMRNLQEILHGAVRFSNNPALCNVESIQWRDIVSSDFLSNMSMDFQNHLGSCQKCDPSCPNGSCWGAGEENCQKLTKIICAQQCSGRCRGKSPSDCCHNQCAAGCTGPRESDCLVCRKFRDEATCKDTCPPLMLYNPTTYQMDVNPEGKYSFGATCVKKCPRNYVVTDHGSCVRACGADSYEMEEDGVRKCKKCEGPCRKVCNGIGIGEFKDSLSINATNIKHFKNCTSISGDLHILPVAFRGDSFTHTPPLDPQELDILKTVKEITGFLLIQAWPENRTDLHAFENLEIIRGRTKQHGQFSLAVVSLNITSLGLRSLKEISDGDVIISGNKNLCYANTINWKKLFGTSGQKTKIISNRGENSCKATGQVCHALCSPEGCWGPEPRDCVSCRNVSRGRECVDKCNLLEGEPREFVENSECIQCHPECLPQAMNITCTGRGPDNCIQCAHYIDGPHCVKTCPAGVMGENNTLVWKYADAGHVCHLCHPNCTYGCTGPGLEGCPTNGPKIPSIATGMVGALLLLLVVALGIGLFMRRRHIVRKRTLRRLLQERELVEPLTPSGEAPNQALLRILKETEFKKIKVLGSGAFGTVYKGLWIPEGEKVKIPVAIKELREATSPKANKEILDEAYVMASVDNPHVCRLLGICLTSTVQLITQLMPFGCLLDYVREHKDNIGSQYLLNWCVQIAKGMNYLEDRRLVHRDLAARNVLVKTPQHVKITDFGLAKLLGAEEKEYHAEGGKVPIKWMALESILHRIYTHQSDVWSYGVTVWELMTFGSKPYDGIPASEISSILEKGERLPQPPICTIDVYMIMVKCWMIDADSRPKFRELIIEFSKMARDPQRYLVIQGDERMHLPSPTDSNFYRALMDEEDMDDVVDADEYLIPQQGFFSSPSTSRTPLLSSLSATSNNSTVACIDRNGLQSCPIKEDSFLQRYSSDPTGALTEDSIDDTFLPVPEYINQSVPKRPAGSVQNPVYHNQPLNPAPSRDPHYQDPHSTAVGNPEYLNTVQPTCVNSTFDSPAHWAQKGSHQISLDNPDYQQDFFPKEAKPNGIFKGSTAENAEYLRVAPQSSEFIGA
Sequence of Casein kinase I isoform gamma-1 (Homo sapiens) (Q9HCP0 whole entry, looked up, the tested form may be a part, canonical isoform): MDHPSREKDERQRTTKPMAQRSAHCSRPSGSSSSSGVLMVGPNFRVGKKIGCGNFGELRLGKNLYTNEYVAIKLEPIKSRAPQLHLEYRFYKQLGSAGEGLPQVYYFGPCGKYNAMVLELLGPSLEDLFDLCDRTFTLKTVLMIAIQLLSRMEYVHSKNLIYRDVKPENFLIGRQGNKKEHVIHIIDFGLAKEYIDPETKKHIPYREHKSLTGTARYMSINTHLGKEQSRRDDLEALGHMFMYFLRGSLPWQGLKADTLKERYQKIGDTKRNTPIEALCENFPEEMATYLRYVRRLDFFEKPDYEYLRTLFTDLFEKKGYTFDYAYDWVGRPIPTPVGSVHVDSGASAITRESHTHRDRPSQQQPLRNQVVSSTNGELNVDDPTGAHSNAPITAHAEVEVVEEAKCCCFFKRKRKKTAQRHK
Sequence of Cyclin-dependent kinase-like 1 (Homo sapiens) (Q00532 whole entry, the tested form may be a part): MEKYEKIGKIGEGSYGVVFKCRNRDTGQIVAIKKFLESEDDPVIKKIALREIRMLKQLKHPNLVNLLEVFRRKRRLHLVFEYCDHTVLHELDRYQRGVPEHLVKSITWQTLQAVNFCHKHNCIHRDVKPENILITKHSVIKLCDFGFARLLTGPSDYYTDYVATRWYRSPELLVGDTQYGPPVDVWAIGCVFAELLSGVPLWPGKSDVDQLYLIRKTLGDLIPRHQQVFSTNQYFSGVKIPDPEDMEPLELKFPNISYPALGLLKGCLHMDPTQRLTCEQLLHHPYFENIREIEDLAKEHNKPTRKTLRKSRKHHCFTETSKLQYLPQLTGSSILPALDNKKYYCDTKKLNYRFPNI

| SMILES | inhibition [1] [%] | inhibition [2] [%] | inhibition [3] [%] | inhibition [4] [%] | inhibition [5] [%] | inhibition [6] [%] | inhibition [7] [%] | inhibition [8] [%] | inhibition [9] [%] | inhibition [10] [%] | inhibition [11] [%] | inhibition [12] [%] | inhibition [13] [%] | inhibition [14] [%] | inhibition [15] [%] | inhibition [16] [%] |
| --- | --- | --- | --- | --- | --- | --- | --- | --- | --- | --- | --- | --- | --- | --- | --- | --- |
| O=C(Nc1cccc([C@@H]2CN(c3ncnc4[nH]ccc34)CCN2CCO)c1)Nc1c(F)cccc1N1CCCC1 | 18 | 9.6 | 39 | 100 |  |  |  |  |  |  |  |  |  |  |  |  |
| O=C(Nc1cccc([C@H]2CCCN(c3ncnc4[nH]ccc34)C2)c1)Nc1ccccc1N1CCCC1 |  |  |  |  | 99 | 100 | 74 | 69 | 71 | 78 | 74 | 94 | 100 | 93 | 100 | 0.2 |
